From patent US20090104128A1, “Denture adhesive compositions with anti-ucler agents” (Orahealth Corporation, priority 2007, published 2009) come the findings set out here.

For the experiment, the system named is mouth ulcers. Briefly: tests of cobalamin forms for treatment of mouth ulcers. The settings on record: compared with other cobalamin forms (cyanocobalamin, hydroxocobalamin); tests not described. The class given is in vivo.

`C/C1=C2/[N-][C@H]([C@H](CC(N)=O)[C@@]2(C)CCC(=O)NC[C@@H](C)OP(=O)([O-])O[C@H]2[C@@H](O)[C@@H](n3cnc4cc(C)c(C)cc43)O[C@@H]2CO)[C@]2(C)N=C(/C(C)=C3N=C(/C=C4N=C1[C@@H](CCC(N)=O)C\4(C)C)[C@@H](CCC(N)=O)[C@]\3(C)CC(N)=O)[C@@H](CCC(N)=O)[C@]2(C)CC(N)=O.[CH3-].[Co+3]` [Methylcobalamin, methylcobalamin]: the “treatment of mouth ulcers” value is “superior”.
